Reference: patent US20240150334A1, “HSD17B13 INHIBITORS AND/OR DEGRADERS” (Pfizer Inc., priority 2022, published 2024)
Counter-ions that a name gives are not always drawn.

Tests used:
wild type human HSD17B13 = wild type human HSD17B13 (Homo sapiens (Human), UniProt Q7Z5P4); experiment: HEK_Beta-Est LCMS_IC50_Tekcel, whole-cell HEK-HSD17B13 inhibition assay, estrone production by LCMS; type: cell-based; conditions: geometric mean, HEK cells stably expressing wild type human HSD17B13, 25 μM FAC beta-estradiol, read-out: HEK_Beta-Est LCMS_IC50—Tekcel GMean IC50
wild type human HSD17B13, sequence (Q7Z5P4 20-300): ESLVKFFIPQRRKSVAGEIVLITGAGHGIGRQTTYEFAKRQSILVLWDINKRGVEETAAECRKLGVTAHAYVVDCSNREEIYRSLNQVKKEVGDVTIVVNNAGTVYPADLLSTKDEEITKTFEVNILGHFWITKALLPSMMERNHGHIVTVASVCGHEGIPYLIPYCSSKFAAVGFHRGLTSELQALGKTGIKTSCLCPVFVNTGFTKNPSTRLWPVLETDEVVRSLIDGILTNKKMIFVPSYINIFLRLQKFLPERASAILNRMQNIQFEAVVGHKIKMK
Outline: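 Readout was LCMS quantitation of estrone made from beta-estradiol with NAD+ as cofactor. Whole HEK-HSD17B13 cells were given compound for 1 hour, then the reaction for 2 hours, both at 37° C. Product area ratios were normalized to vehicle controls as zero percent effect.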

HSD17B13 enzyme = HSD17B13 enzyme (Homo sapiens (Human), UniProt Q7Z5P4); experiment: hHSD17B13 IC50 Assay (FAC beta-estradiol), purified protein enzyme activity assay with NAD(P)H-Glo luciferase readout; type: biochemical; conditions: geometric mean, 12 μM FAC beta-estradiol, 500 μM NAD+, read-out: hHSD17B13_IC50 GMean IC50
HSD17B13 enzyme, sequence (Q7Z5P4 20-300): as above
Outline: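 Purified human HSD17B13 (30 nM FAC) incubated with compound, beta-estradiol and NAD+ for 2 h at room temperature in the dark. NADH formation was detected by NAD(P)H-Glo luminescence after 1 h. RLUs normalized to uninhibited enzyme (vehicle) as zero effect.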

Compound	IC50 (wild type human HSD17B13) [nM]	IC50 (HSD17B13 enzyme) [nM]
Cc1ncc(-c2ccc3cn([C@H]4CC[C@H](CNC(=O)c5cc(F)c(O)c(F)c5)CC4)nc3c2)cn1 [Example 77, 3,5-difluoro-4-hydroxy-N-({(1r,4r)-4-[6-(2-methylpyrimidin-5-yl)-2H-indazol-2-yl]cyclohexyl}methyl) benzamide]	160	13
COc1ccc(-c2noc([C@]34CC[C@](CNC(=O)c5cc(F)c(O)c(F)c5)(CC3)CC4)n2)nn1 [Example 124, 3,5-difluoro-4-hydroxy-N-({4-[3-(6-methoxypyridazin-3-yl)-1,2,4-oxadiazol-5-yl]bicyclo [2.2.2]octan-1-yl}methyl)benzamide]	160	7.1
O=C(NC[C@]12CC[C@](n3cc4cc(C(F)(F)F)ccc4n3)(CC1)CC2)c1cc(F)c(O)c(F)c1 [Example 125, 3,5-difluoro-4-hydroxy-N-({4-[5-(trifluoromethyl)-2H-indazol-2-yl]bicyclo[2.2.2]octan-1-yl}methyl)benzamide]	250	17
O=C(NC[C@]12CC[C@](c3noc(-c4ccc(OS(=O)(=O)F)cc4)n3)(CC1)CC2)c1cc(F)c(O)c(F)c1 [Example 126, 4-(3-{4-[(3,5-difluoro-4-hydroxybenzamido)methyl]bicyclo[2.2.2]octan-1-yl}-1,2,4-oxadiazol-5-yl) phenyl sulfurofluoridate]	430	16
Cc1ccc2nn([C@H]3CC[C@H](CNC(=O)c4cc(F)c(O)c(F)c4)CC3)cc2c1 [Example 131, 3,5-difluoro-4-hydroxy-N-{[(1r,4r)-4-(5-methyl-2H-indazol-2-yl)cyclo-hexyl]methyl} benzamide]	270	27

The next lines start with the values.

IC50 (wild type human HSD17B13) [nM]	IC50 (HSD17B13 enzyme) [nM]	Compound
310	14	COc1cccc2nn([C@H]3CC[C@H](CNC(=O)c4cc(F)c(O)c(F)c4)CC3)cc12 [Example 122, 3,5-difluoro-4-hydroxy-N-{[(1r,4r)-4-(4-methoxy-2H-indazol-2-yl)cyclohexyl]methyl} benzamide]
460	10	Cc1ccc(-c2noc([C@]34CC[C@](CNC(=O)c5cc(F)c(O)c(F)c5)(CC3)CC4)n2)nn1 [Example 123, 3,5-difluoro-4-hydroxy-N-({4-[3-(6-methylpyridazin-3-yl)-1,2,4-oxadiazol-5-yl]bicyclo[2.2.2]octan-1-yl}methyl)benzamide]
350	13	COc1cnc(-c2noc([C@H]3CC[C@H](CNC(=O)c4cc(F)c(O)c(F)c4)CC3)n2)cn1 [Example 127, 3,5-difluoro-4-hydroxy-N-({(1r,4r)-4-[3-(5-methoxy-pyrazin-2-yl)-1,2,4-oxadiazol-5-yl]cyclohexyl}methyl) benzamide]
400	16	CS(=O)(=O)c1ccc(-c2noc([C@H]3CC[C@H](CNC(=O)c4cc(F)c(O)c(F)c4)CC3)n2)cc1 [Example 128, 3,5-difluoro-4-hydroxy-N-{[(1r,4r)-4-{3-[4-(methanesulfonyl)phenyl]-1,2,4-oxadiazol-5-yl}cyclohexyl]methyl} benzamide]
400	33	COc1ccc2nn([C@H]3CC[C@H](CNC(=O)c4cc(F)c(O)c(F)c4)CC3)cc2c1 [Example 129, 3,5-difluoro-4-hydroxy-N-{[(1r,4r)-4-(5-methoxy-2H-indazol-2-yl)cyclohexyl]methyl}benzamide]
330	27	Cc1ccc2cn([C@H]3CC[C@H](CNC(=O)c4cc(F)c(O)c(F)c4)CC3)nc2c1 [Example 130, 3,5-difluoro-4-hydroxy-N-{[(1r,4r)-4-(6-methyl-2H-indazol-2-yl)cyclohexyl]methyl}benzamide]
140	14	O=C(NC[C@H]1CC[C@H](n2cc3cc(Cl)ccc3n2)CC1)c1cc(F)c(O)c(F)c1 [Example 132, N-{[(1r,4r)-4-(5-chloro-2H-indazol-2-yl)cyclohexyl]methyl}-3,5-difluoro-4-hydroxybenzamide, ammonium salt]
